Target: T1, HPK1 (Homo sapiens, UniProt Q92918)
T1 construct: A HiBiT tag was introduced by CRISPR on the N terminus of HPK1 in Jurkat cells; host or cells: Jurkat cells (ATCC TIB-152), monoclonal line with CRISPR knock-in of HiBiT at the endogenous HPK1 locus
Experiment: HPK1 Cellular HiBit Degradation Assay
Assay type: cell-based
Conditions: HiBiT HPK1 Jurkat cells, 24 hrs; for DC50: concentration at which 50% of HPK1 was remaining, read-out: DC50 Category; for Dmax: Jurkat, read-out: Dmax Category; for Dmax / Dmax Category: maximum degradation vs DMSO vehicle control
In short: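 Jurkat cells with CRISPR knock-in N-terminal HiBiT-HPK1 were treated with CTMs (11-point, 3.16-fold, 10 uM to 0.1 nM final) for 24 hrs at 37° C. HiBiT lytic luminescence, with parental Jurkat as background and DMSO as 100%, gave % HPK1 remaining; four-parameter fit yielded DC50 and Dmax (100 minus lowest % remaining).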

T1 sequence (Q92918 whole entry): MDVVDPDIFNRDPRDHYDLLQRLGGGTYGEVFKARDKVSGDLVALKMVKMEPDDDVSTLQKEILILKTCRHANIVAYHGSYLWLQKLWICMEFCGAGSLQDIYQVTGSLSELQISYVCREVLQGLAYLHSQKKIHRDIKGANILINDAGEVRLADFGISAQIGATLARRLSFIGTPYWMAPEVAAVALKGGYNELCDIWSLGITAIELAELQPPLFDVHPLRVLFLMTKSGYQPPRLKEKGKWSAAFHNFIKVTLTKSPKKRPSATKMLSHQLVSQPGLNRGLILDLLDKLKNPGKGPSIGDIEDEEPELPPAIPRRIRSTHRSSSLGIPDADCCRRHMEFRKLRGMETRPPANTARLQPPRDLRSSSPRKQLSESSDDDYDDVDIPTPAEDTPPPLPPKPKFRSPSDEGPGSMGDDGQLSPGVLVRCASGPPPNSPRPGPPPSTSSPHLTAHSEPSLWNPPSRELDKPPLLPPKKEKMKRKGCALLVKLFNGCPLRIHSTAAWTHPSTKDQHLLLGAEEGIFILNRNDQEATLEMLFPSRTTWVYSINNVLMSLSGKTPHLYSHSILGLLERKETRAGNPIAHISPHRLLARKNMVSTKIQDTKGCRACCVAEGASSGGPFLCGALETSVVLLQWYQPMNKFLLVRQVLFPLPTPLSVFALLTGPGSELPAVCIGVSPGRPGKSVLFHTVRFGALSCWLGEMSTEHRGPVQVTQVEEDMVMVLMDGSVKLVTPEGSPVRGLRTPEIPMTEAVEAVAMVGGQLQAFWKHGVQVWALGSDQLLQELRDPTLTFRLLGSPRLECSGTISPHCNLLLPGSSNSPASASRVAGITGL

Row | SMILES | DC50 | Dmax | Dmax Category
1 | CC(C)n1cnc2cc(-c3ccc4c(c3)N([C@H]3C[C@@H](N5CCCCC5)C3)C(=O)C43CCN(C(=O)[C@H]4CCN(C(=O)[C@H]5CC[C@@H](Nc6cccc7c6n(C)c(=O)n7C6CCC(=O)NC6=O)CC5)C4)CC3)nc(Nc3ccccc3F)c21 (mixture of isomers) [Example 143, (3RS)-3-(3-methyl-2-oxo-4-{[(1R,4R)-4-[(3S)-3-[(6-{4-[(2-fluorophenyl)amino]-3-(propan-2-yl)-3H-imidazo[4,5-c]pyridin-6-yl}-2-oxo-1-[(1S,3S)-3-(piperidin-1-yl)cyclobutyl]-1,2-dihydrospiro[indole-3,4′-piperidin]-1′-yl)carbonyl]pyrrolidine-1-carbonyl]cyclohexyl]amino}-2,3-dihydro-1H-1,3-benzodiazol-1-yl)piperidine-2,6-dione] | < 100 nM | 50 to 70% | –
2 | CC(C)n1cnc2cc(-c3ccc4c(c3)N([C@H]3C[C@@H](N5CCCCC5)C3)C(=O)C43CCN(C(=O)[C@@H]4CCN(C(=O)[C@H]5CC[C@H](Nc6cccc7c6n(C)c(=O)n7C6CCC(=O)NC6=O)CC5)C4)CC3)nc(Nc3ccccc3F)c21 (mixture of isomers) [Example 144, (3RS)-3-(3-methyl-2-oxo-4-{[(1R,4R)-4-[(3R)-3-[(6-{4-[(2-fluorophenyl)amino]-3-(propan-2-yl)-3H-imidazo[4,5-c]pyridin-6-yl}-2-oxo-1-[(1S,3S)-3-(piperidin-1-yl)cyclobutyl]-1,2-dihydrospiro[indole-3,4′-piperidin]-1′-yl)carbonyl]pyrrolidine-1-carbonyl]cyclohexyl]amino}-2,3-dihydro-1H-1,3-benzodiazol-1-yl)piperidine-2,6-dione] | < 100 nM | 50 to 70% | –
3 | Cc1cc(F)c(Nc2nc(-c3ccc4c(c3)N([C@H]3C[C@@H](N5CCCCC5)C3)C(=O)C43CCN(C(=O)c4cc(C(=O)N5CCN(c6ccc7c(c6)C(=O)N(C6CCC(=O)NC6=O)C7=O)CC5)n(C)n4)CC3)cc3ncn(C(C)C)c23)cc1C(=O)NC(C)C (mixture of isomers) [Example 145, 5-[(6-{1′-[5-(4-{2-[(3RS)-2,6-dioxopiperidin-3-yl]-1,3-dioxo-2,3-dihydro-1H-isoindol-5-yl}piperazine-1-carbonyl)-1-methyl-1H-pyrazole-3-carbonyl]-2-oxo-1-[(1S,3S)-3-(piperidin-1-yl)cyclobutyl]-1,2-dihydrospiro[indole-3,4′-piperidin]-6-yl}-3-(propan-2-yl)-3H-imidazo[4,5-c]pyridin-4-yl)amino]-4-fluoro-2-methyl-N-(propan-2-yl)benzamide] | 500 to 1000 nM | 50 to 70% | –
4 | CC(C)n1cnc2cc(-c3ccc4c(c3)N([C@H]3C[C@@H](N5CCCCC5)C3)C(=O)C43CCN(C(=O)c4cc(C(=O)N5CCN(c6ccc7c(c6)C(=O)N(C6CCC(=O)NC6=O)C7=O)CC5)n(C)n4)CC3)nc(Nc3ccccc3F)c21 (mixture of isomers) [Example 146, 2-[(3RS)-2,6-dioxopiperidin-3-yl]-5-(4-{3-[(6-{4-[(2-fluorophenyl)amino]-3-(propan-2-yl)-3H-imidazo[4,5-c]pyridin-6-yl}-2-oxo-1-[(1S,3S)-3-(piperidin-1-yl)cyclobutyl]-1,2-dihydrospiro[indole-3,4′-piperidin]-1′-yl)carbonyl]-1-methyl-1H-pyrazole-5-carbonyl}piperazin-1-yl)-2,3-dihydro-1H-isoindole-1,3-dione] | 100 to 500 nM | 70 to 85% | –
5 | CC(C)n1cnc2cc(-c3ccc4c(c3)N([C@H]3C[C@@H](N5CCCCC5)C3)C(=O)C43CCN(C(=O)[C@]4(C)CCN(C(=O)C5CCN(c6ccc(C7CCC(=O)NC7=O)cc6F)CC5)C4)CC3)nc(NC3CC3)c21 (mixture of isomers) [Example 147, (3RS)-3-(4-{4-[(3R)-3-({6-[4-(cyclopropylamino)-3-(propan-2-yl)-3H-imidazo[4,5-c]pyridin-6-yl]-2-oxo-1-[(1S,3S)-3-(piperidin-1-yl)cyclobutyl]-1,2-dihydrospiro[indole-3,4′-piperidin]-1′-yl}carbonyl)-3-methylpyrrolidine-1-carbonyl]piperidin-1-yl}-3-fluorophenyl)piperidine-2,6-dione] | 100 to 500 nM | > 85% | –
6 | Cc1cc(C2CCC(=O)NC2=O)cnc1N1CCC(C(=O)N2CCC(C)(C(=O)N3CCC4(CC3)C(=O)N(C3CC(N5CCCCC5)C3)c3cc(-c5cc6ncn(C(C)C)c6c(NC6CC6)n5)ccc34)CC2)CC1 (racemic) [Example 148, (3RS)-3-(6-{4-[4-({6-[4-(cyclopropylamino)-3-(propan-2-yl)-3H-imidazo[4,5-c]pyridin-6-yl]-2-oxo-1-[(1S,3S)-3-(piperidin-1-yl)cyclobutyl]-1,2-dihydrospiro[indole-3,4′-piperidin]-1′-yl}carbonyl)-4-methylpiperidine-1-carbonyl]piperidin-1-yl}-5-Methylpyridin-3-yl)piperidine-2,6-dione] | < 100 nM | – | B (B: >70%-<85%)
7 | CC(C)n1cnc2cc(-c3ccc4c(c3)N(C3CC(N5CCCCC5)C3)C(=O)C43CCN(C(=O)CC4(C)CCN(C(=O)C5CCN(c6ccc(C7CCC(=O)NC7=O)cn6)CC5)CC4)CC3)nc(NC3CC3)c21 (racemic) [Example 149, (3RS)-3-(6-{4-[4-(2-{6-[4-(cyclopropylamino)-3-(propan-2-yl)-3H-imidazo[4,5-c]pyridin-6-yl]-2-oxo-1-[(1S,3S)-3-(piperidin-1-yl)cyclobutyl]-1,2-dihydrospiro[indole-3,4′-piperidin]-1′-yl}-2-oxoethyl)-4-methylpiperidine-1-carbonyl]piperidin-1-yl}pyridin-3-yl)piperidine-2,6-dione] | < 100 nM | – | B (B: >70%-<85%)
8 | CC(C)n1cnc2cc(-c3ccc4c(c3)N([C@H]3C[C@@H](N5CCCCC5)C3)C(=O)C43CCN(C(=O)C4(C)CCN(C(=O)[C@H]5CC[C@H](N(C)c6ccc(C7CCC(=O)NC7=O)cc6)CC5)CC4)CC3)nc(NC3CC3)c21 (mixture of isomers) [Example 150, (3RS)-3-(4-{methyl[(1R,4R)-4-[4-({6-[4-(cyclopropylamino)-3-isopropylimidazo[4,5-c]pyridin-6-yl]-2-oxo-1-[(1S,3S)-3-(piperidin-1-yl)cyclobutyl]spiro[indole-3,4′-piperidin]-1′-yl}carbonyl)-4-methylpiperidine-1-carbonyl]cyclohexyl]amino}phenyl)piperidine-2,6-dione] | 100 to 500 nM | 50 to 70% | –
9 | CC(C)n1cnc2cc(-c3ccc4c(c3)N(C3CC(N5CCCCC5)C3)C(=O)C43CCN(C(=O)C4(C)CCN(C(=O)C5(C)CCN(c6ccc(C7CCC(=O)NC7=O)cn6)CC5)CC4)CC3)nc(NC3CC3)c21 (racemic) [Example 151, (3RS)-3-(6-{4-[4-({6-[4-(cyclopropylamino)-3-isopropylimidazo[4,5-c]pyridin-6-yl]-2-oxo-1-[(1S,3S)-3-(piperidin-1-yl)cyclobutyl]spiro[indole-3,4′-piperidin]-1′-yl}carbonyl)-4-methylpiperidine-1-carbonyl]-4-methylpiperidin-1-yl}pyridin-3-yl)piperidine-2,6-dione] | < 100 nM | – | B (B: >70%-<85%)
10 | CC(C)n1cnc2cc(-c3ccc4c(c3)N([C@H]3C[C@@H](N5CCCCC5)C3)C(=O)C43CCN(C(=O)C4(C)CCN(C(=O)C5CCN(c6ccc(C7CCC(=O)NC7=O)cc6F)CC5)CC4)CC3)nc(NC3CC3)c21 (mixture of isomers) [Example 152, (3RS)-3-(4-{4-[4-({6-[4-(cyclopropylamino)-3-isopropylimidazo[4,5-c]pyridin-6-yl]-2-oxo-1-[(1S,3S)-3-(piperidin-1-yl)cyclobutyl]spiro[indole-3,4′-piperidin]-1′-yl}carbonyl)-4-methylpiperidine-1-carbonyl]piperidin-1-yl}-3-Fluorophenyl)piperidine-2,6-dione] | < 100 nM | 70 to 85% | –
11 | Cc1cc(C2CCC(=O)NC2=O)ccc1O[C@H]1CC[C@H](C(=O)N2CCC(C)(C(=O)N3CCC4(CC3)C(=O)N([C@H]3C[C@@H](N5CCCCC5)C3)c3cc(-c5cc6ncn(C(C)C)c6c(NC6CC6)n5)ccc34)CC2)CC1 (mixture of isomers) [Example 156, (3RS)-3-(3-methyl-4-{[(1R,4R)-4-[4-({6-[4-(cyclopropylamino)-3-isopropylimidazo[4,5-c]pyridin-6-yl]-2-oxo-1-[(1S,3S)-3-(piperidin-1-yl)cyclobutyl]spiro[indole-3,4′-piperidin]-1′-yl}carbonyl)-4-methylpiperidine-1-carbonyl]cyclohexyl]oxy}phenyl)piperidine-2,6-dione] | 100 to 500 nM | > 85% | –
12 | Cc1nc(N2CCC(C(=O)N3CCC(C)(C(=O)N4CCC5(CC4)C(=O)N([C@H]4C[C@@H](N6CCCCC6)C4)c4cc(-c6cc7ncn(C(C)C)c7c(Nc7ccccc7F)n6)ccc45)CC3)CC2)ccc1C1CCC(=O)NC1=O (mixture of isomers) [Example 157, (3RS)-3-[6-(4-{4-[(6-{4-[(2-fluorophenyl)amino]-3-(propan-2-yl)-3H-imidazo[4,5-c]pyridin-6-yl}-2-oxo-1-[(1S,3S)-3-(piperidin-1-yl)cyclobutyl]-1,2-dihydrospiro[indole-3,4′-piperidin]-1′-yl)carbonyl]-4-methylpiperidine-1-carbonyl}piperidin-1-yl)-2-Methylpyridin-3-yl]piperidine-2,6-dione] | 100 to 500 nM | 70 to 85% | –
13 | CC(C)n1cnc2cc(-c3ccc4c(c3)N([C@H]3C[C@@H](N5CCCCC5)C3)C(=O)C43CCN(S(=O)(=O)C4CCN(C(=O)C5CCN(c6ccc(C7CCC(=O)NC7=O)cn6)CC5)CC4)CC3)nc(NC3CC3)c21 (mixture of isomers) [Example 159, (3RS)-3-(6-{4-[4-({6-[4-(cyclopropylamino)-3-(propan-2-yl)-3H-imidazo[4,5-c]pyridin-6-yl]-2-oxo-1-[(1S,3S)-3-(piperidin-1-yl)cyclobutyl]-1,2-dihydrospiro[indole-3,4′-piperidin]-1′-yl}sulfonyl)piperidine-1-carbonyl]piperidin-1-yl}pyridin-3-yl)piperidine-2,6-dione] | < 100 nM | > 85% | –

Source: US12091426B2, “Bifunctional degraders of hematopoietic progenitor kinase and therapeutic uses thereof” (Nurix Therapeutics, Inc., priority 2021, dated 2024)
